17 compounds from patent publication US11390591B2, “2,4,6-trisubstituted s-triazine compound, preparation method therefor, and use thereof” (Aluda Pharmaceuticals, Inc., priority 2016, dated 2022) can be followed below.

Format in all cases: cell-based
For test [1], the system named is cell lines of human non-small cell lung cancer (H522). The test is described as follows: In vitro antineoplastic activity, MTT experiment, H522. The settings on record: H522 cells, 48 hours, highest concentration tested 31.6 μM (>30: inhibition rate <50%). How it is done: (§1) MTT, RPM1640 culture medium, fetal bovine serum, 96-well plate, CO2 thermostatic incubator, American BIO-RAD680 microplate reader, cell lines of human non-small cell lung cancer (H522), and cell lines of human brain glioma (U87) were all obtained commercially.
(§2) (1) Cell inoculation: A single cell suspension was prepared with culture media supplemented with 10% fetal bovine serum, plated into a 96-well plate with 5000 cells per well, each well having a volume of 100 μL, and cultured overnight.
(§3) (2) Preparation of compound solutions: a DMSO stock solution of a compound was diluted on a sterile bench with a culture medium into 5 concentrations to be tested, wherein a double dilution was employed between two adjacent concentrations.
(§4) (3) The compound solutions of various concentrations were added into the 96-well plate cultured overnight, with 100 μL added per well, triplicated wells for each concentration. Since the peripheral wells can have edge effect and are susceptible to contamination, no cells or compounds were added thereto; instead, 100 μL culture solution was added as a blank. Additionally, 100% wells were set to contain the cells and 100 μL culture media without any compound. The plates were incubated in a thermostatic incubator at 37° C. for 48 hours.
(§5) (4) Staining: 10 μL MTT solution (5 mg/mL, prepared with PBS) was added into the 96-well plate for staining. After incubation for 4 hours, centrifugation was performed at 2500 rpm for 10 minutes. Then, a multiple pipette was used to suck the culture solution out of the wells carefully without sucking out the cells while the pipette tip faced downward. 150 μL DMSO was added and shaken on a shaker for 5-10 minutes. Crystals were allowed to dissolve fully, and an OD value for each well was measured using the microplate reader at 570 nm. The inhibition rate was calculated as follows: Inhibition rate (%)=(average OD value of 100% wells−average OD value of compound wells)/(average OD value of 100% wells−average OD value of blank wells)×100%

The test system of test [2] is cell lines of human brain glioma (U87). The test is described as follows: In vitro antineoplastic activity, MTT experiment, U87. How it is done: as §1, §2, §3, §4, §5
In a further test the test system is human glioma U87 cells. The test is described as follows: Tumor cell vacuolization (methuosis) scoring, U87. Further details: key to Vacuolation Score: 5 scores were given when obvious vacuolization occurred at 10 nM; 4 scores at 31.6 nM; 3 scores at 100 nM; 2 scores at 316 nM; 1 score at 1000 nM; 0 score was given if no vacuolation occurred at any concentration. The settings on record: U87 cells, 0.01-3.160 μM, 96 hours, microscope. How it is done: FIG. 2. Vacuolization of tumor cells. 100 microliter culture medium (RPMI1640, 2 mmol glutamine, 10% fetal bovine serum) containing 10^3 human colon adenocarcinoma cells (HCT15) or human brain glioma cells (U87) and a solvent DMSO control or 100 nM #40 compound (L16) was plated into a 96-well cell culture plate, and cell morphological image was taken under a phase contrast microscope after cultured at 5% CO2 and 37° C. for 96 hours.
Some cells gradually became round and eventually bursted. These changes are consistent with the features of cell death by methuosis (FIG. 2).
In order to compare the ability of different compounds to cause cell vacuolization, 100 μL culture media (RPMI1640, 2 mmol glutamine, 10% fetal bovine serum) comprising 10^3 human glioma U87 cells and final concentrations of 0.01, 0.0316, 0.1, 0.316, 1.0, 3.160 μM respectively of the compounds to be tested were inoculated into a 96-well culture plate. After cultured at 5% CO2 and 37° C. for 96 hours, cell morphology was observed under a high-magnification microscope, and the ability of the compounds to cause cell vacuolization was scored. 5 scores were given when obvious vacuolization occurred at 10 nM, 4 scores at 31.6 nM, 3 scores at 100 nM, 2 scores at 316 nM, 1 score at 1000 nM, and 0 score was given if no vacuolation occurred at any concentration.

The mark [3] stands for this setting: U87 cells, MTT, 48 hours, highest concentration tested 31.6 μM, read-out: IC50(μM) U87.
[4] abbreviates: ability to inhibit cell proliferation, U87 (FIG. 3), unit inferred, read-out: IC50.

Like-named read-outs stand apart in the source and are kept apart here. Some results are limits rather than exact numbers.

As for `O=C(Nc1ccc(Nc2nc(/C=C/c3ccccc3)nc(N3CCOCC3)n2)cc1)Nc1ccc(C(=O)NCCN2CCCCC2)cc1` [L36, (E)-N-(2-(piperidin-1-yl)ethyl)-4-(3-(4-(4-(morpholin-1-yl)-6-styrenyl-1,3,5-triazinyl-2-amino)phenyl)urea)benzamide], the half-maximal inhibitory concentration (IC50) (as a rule, the midpoint of a concentration-inhibition curve) was found to be 3.69 ± 0.44 µM in test [1], 1.11 ± 0.06 µM in test [2] (setting [3]) and 1.25 µM in test [2] (setting [4]). Besides, the “Vacuolation Score” value with human glioma U87 cells was 1 (1 score at 1000 nM).
For `O=C(Nc1ccc(Cl)cc1)Nc1ccc(Nc2nc(/C=C/c3ccc(Cl)cc3)nc(N3CCOCC3)n2)cc1` [L10, (E)-1-(4-chlorophenyl)-3-(4-(4-(morpholin-1-yl)-6-(4-chlorostyrenyl)-1,3,5-triazinyl-2-amino)phenyl)urea], the half-maximal inhibitory concentration (IC50) was determined as 2.18 ± 0.23 µM in test [1], 4.92 ± 0.16 µM in test [2] (setting [3]) and 4.92 µM in test [2] (setting [4]). Moreover, the “Vacuolation Score” value in the test on human glioma U87 cells is 3 (3 scores at 100 nM).
Turning to `O=C(Nc1ccc(Nc2nc(/C=C/c3ccccc3)nc(N3CCOCC3)n2)cc1)Nc1ccc(C(=O)NCCN2CCCC2)cc1` [L35, (E)-N-(2-(pyrrolidin-1-yl)ethyl)-4-(3-(4-(4-(morpholin-1-yl)-6-styrenyl-1,3,5-triazinyl-2-amino)phenyl)urea)benzamide], the concentration for half-maximal inhibition (IC50) was determined as 4.14 ± 0.13 µM in test [1], 1.43 ± 0.1 µM in test [2] (setting [3]) and 2.1 µM in test [2] (setting [4]). Also, the “Vacuolation Score” value with human glioma U87 cells was 1 (1 score at 1000 nM).
The like results for `CN1CCN(c2nc(/C=C/c3ccccc3)nc(Nc3ccc(NC(=O)Nc4ccc(F)cc4)cc3)n2)CC1` [L4, (E)-1-(4-fluorophenyl)-3-(4-(4-(4-methylpiperazin-1-yl)-6-styrenyl-1,3,5-triazinyl-2-amino)phenyl)urea] were, in that order, 1.92 ± 0.19 µM, 1.19 ± 0.07 µM, 1.19 µM and 0.
For `O=C(Nc1ccc(Cl)cc1)Nc1cccc(Nc2nc(/C=C/c3cccc([N+](=O)[O-])c3)nc(N3CCOCC3)n2)c1` [L27, (E)-1-(4-chlorophenyl)-3-(3-(4-(morpholin-1-yl)-6-(3-nitrostyrenyl)-1,3,5-triazinyl-2-amino)phenyl)urea], the IC50 in test [1] worked out at 2.21 ± 0.33 µM; in test [2] (setting [3]), 3.66 ± 0.55 µM; in test [2] (setting [4]), 3.66 µM. The “Vacuolation Score” value with human glioma U87 cells stood at 0.
In the case of `CN1CCN(c2nc(/C=C/c3ccccc3)nc(Nc3ccc(NC(=O)Nc4ccc(Cl)cc4)cc3)n2)CC1` [L3, (E)-1-(4-chlorophenyl)-3-(4-(4-(4-methylpiperazin-1-yl)-6-styrenyl-1,3,5-triazinyl-2-amino)phenyl)urea], the results for the IC50 in test [1], in test [2] (setting [3]) and in test [2] (setting [4]) were > 30 µM, 10.6 ± 1.2 µM and > 10 µM, respectively. Also, the “Vacuolation Score” value with human glioma U87 cells is recorded as 0.
Consider `CN1CCN(c2nc(/C=C/c3ccccc3)nc(Nc3cccc(NC(=O)Nc4ccc(Cl)cc4)c3)n2)CC1` [L24, (E)-1-(4-chlorophenyl)-3-(3-(4-(4-methylpiperazin-1-yl)-6-styrenyl-1,3,5-triazinyl-2-amino)phenyl)urea], for which the values for the IC50 in test [1], in test [2] (setting [3]) and in test [2] (setting [4]) were 4.03 ± 0.65 µM, 4.4 ± 0.88 µM and 4.4 µM, respectively. The “Vacuolation Score” value in the test with human glioma U87 cells amounted to 0.
In the case of `O=C(Nc1ccc(Cl)cc1)Nc1ccc(Nc2nc(/C=C/c3cccc(Cl)c3)nc(N3CCOCC3)n2)cc1` [L6, (E)-1-(4-chlorophenyl)-3-(4-(4-(morpholin-1-yl)-6-(3-chlorostyrenyl)-1,3,5-triazinyl-2-amino)phenyl)urea], the IC50 was determined as 5.25 ± 0.45 µM in test [1], 3.63 ± 0.11 µM in test [2] (setting [3]) and 3.63 µM in test [2] (setting [4]). For the same compound, in the test with human glioma U87 cells, the “Vacuolation Score” value is listed as 4 (4 scores at 31.6 nM).
The corresponding values for `CN1CCN(c2nc(/C=C/c3cccc([N+](=O)[O-])c3)nc(Nc3ccc(NC(=O)Nc4ccc(Cl)cc4)cc3)n2)CC1` [L18, (E)-1-(4-chlorophenyl)-3-(4-(4-(4-methylpiperazin-1-yl)-6-(3-nitrostyrenyl)-1,3,5-triazinyl-2-amino)phenyl)urea] are 2.31 ± 0.17 µM, 1.21 ± 0.07 µM, 1.21 µM and 0.
The like results for `CCN(CC)CCNC(=O)c1ccc(NC(=O)Nc2ccc(Nc3nc(/C=C/c4ccccc4)nc(N4CCOCC4)n3)cc2)cc1` [L33, (E)-N-(2-(diethylamino)ethyl)-4-(3-(4-(4-(morpholin-1-yl)-6-styrenyl-1,3,5-triazinyl-2-amino)phenyl)urea)benzamide] were, in that order, 4.31 ± 0.09 µM, 1.3 ± 0.05 µM, 1.9 µM and 3.5.
In the case of `CN1CCN(c2nc(/C=C/c3cccc([N+](=O)[O-])c3)nc(Nc3cccc(NC(=O)Nc4ccc(Cl)cc4)c3)n2)CC1` [L28, (E)-1-(4-chlorophenyl)-3-(3-(4-(4-methylpiperazin-1-yl)-6-(3-nitrostyrenyl)-1,3,5-triazinyl-2-amino)phenyl)urea], the 50% inhibitory concentration (IC50) was 1.53 ± 0.22 µM in test [1], 1.49 ± 0.22 µM in test [2] (setting [3]) and 1.5 µM in test [2] (setting [4]). For the same compound, the “Vacuolation Score” value with human glioma U87 cells turned out to be 0.
The corresponding values for `CN1CCN(c2nc(/C=C/c3ccc(Cl)cc3)nc(Nc3ccc(NC(=O)Nc4ccc(F)cc4)cc3)n2)CC1` [L14, (E)-1-(4-fluorophenyl)-3-(4-(4-(4-methylpiperazin-1-yl)-6-(4-chlorostyrenyl)-1,3,5-triazinyl-2-amino)phenyl)urea] are 5.03 ± 0.49 µM, 2.48 ± 0.11 µM, 2.48 µM and 0.
For `CN(C)c1nc(/C=C/c2cccc([N+](=O)[O-])c2)nc(Nc2ccc(NC(=O)Nc3ccc(Cl)cc3)cc2)n1` [L20, (E)-1-(4-chlorophenyl)-3-(4-(4-dimethylamino-6-(3-nitrostyrenyl)-1,3,5-triazinyl-2-amino)phenyl)urea], the figures for the IC50 in test [1], in test [2] (setting [3]) and in test [2] (setting [4]) were 5.55 ± 0.4 µM, 5.12 ± 0.28 µM and 5.12 µM, respectively. The “Vacuolation Score” value in the test on human glioma U87 cells was 0.
The corresponding values for `CN1CCN(c2nc(/C=C/c3cccc(Cl)c3)nc(Nc3ccc(NC(=O)Nc4ccc(Cl)cc4)cc3)n2)CC1` [L8, (E)-1-(4-chlorophenyl)-3-(4-(4-(4-methylpiperazin-1-yl)-6-(3-chlorostyrenyl)-1,3,5-triazinyl-2-amino)phenyl)urea] are 1.82 ± 0.09 µM, 1.21 ± 0.16 µM, 1.21 µM and 0.
Consider `CC1CCN(C(=O)c2ccc(NC(=O)Nc3ccc(Nc4nc(/C=C/c5ccccc5)nc(N5CCOCC5)n4)cc3)cc2)CC1` [L30, (E)-1-(4-((4-methylpiperidin-1-yl)formyl)phenyl)-3-(4-(4-(morpholin-1-yl)-6-styrenyl-1,3,5-triazinyl-2-amino)phenyl)urea], for which the half-inhibitory concentration (IC50) in test [1] is 5.24 ± 1.33 µM; in test [2] (setting [3]), 0.87 ± 0.08 µM; in test [2] (setting [4]) it was 0.9 µM. Besides, in the test on human glioma U87 cells, the “Vacuolation Score” value is reported as 0.
`Cl.O=C(Nc1ccc(Cl)cc1)Nc1ccc(Nc2nc(/C=C/c3cccc([N+](=O)[O-])c3)nc(N3CCOCC3)n2)cc1` [compound 68]: the IC50 in test [2] (Homo sapiens, ability to inhibit cell proliferation, U87 (FIG. 3), unit inferred, read-out: IC50) is 3.28 µM. The “Vacuolation Score” value in the test on human glioma U87 cells was 4 (4 scores at 31.6 nM).
As for `O=C(Nc1ccc(Nc2nc(/C=C/c3ccccc3)nc(N3CCOCC3)n2)cc1)Nc1ccc(C(=O)O)cc1` [compound 14, (E)-1-(4-carboxyphenyl)-3-(4-(4-(morpholin-1-yl)-6-styrenyl-1,3,5-triazinyl-2-amino)phenyl)urea], the “Vacuolation Score” value with human glioma U87 cells turned out to be 1.5.
